{"source": "patent US9518981B2", "about": "“Modified nucleic acid binding cyanine dyes for the detection of reactive oxygen species” (LIFE TECHNOLOGIES CORPORATION, priority 2012, dated 2016)", "key": {"Jurkat cells [1]": {"tested_on": "Jurkat cells", "assay": "Detection of TBHP-induced ROS by flow cytometry, with or without NAC", "format": "cell-based, human", "conditions": "500 nM probe", "procedure": "Jurkat cells were treated with phosphate buffered saline (FIG. 7, control), 200 μM tert-butyl-hydroperoxide (FIG. 7, TBHP), or 200 μM TBHP and 1 mM N-acetyl-L-cysteine (FIG. 7, TBHP+NAC), for one hour at 37° C., 5% CO2 prior to incubation with 500 nM Compound 1. Cell samples were analyzed using a Becton Dickinson LSRII flow cytometer equipped with a 488 nm laser line and a 525/50 bandpass filter for collection of fluorescence emission of Compound 1. TBHP is a membrane-permeant pro-oxidant used extensively in a model of oxidative stress in different systems. Reduction in the oxidative stress response induced by TBHP has been attributed to the ability of the antioxidant, NAC, to replenish intracellular glutathione levels. This reduces levels of reactive oxygen species."}, "[2]": {"tested_on": "Jurkat cells (T-cell leukemia, human)", "assay": "Detection of ROS in complete media vs. protein-containing buffer, flow cytometry", "format": "cell-based", "conditions": "500 nM probe", "procedure": "Jurkat cells (T-cell leukemia, human) were resuspended in complete medium (RPMI 1640 medium, GIBCO (Life Technologies, Carlsbad, Calif.), supplemented with 10% Fetal Bovine Serum, FBS) or phosphate buffered saline supplemented with 1% bovine serum albumin (BSA). Cells in both complete medium (FIG. 9, panel A) and buffered saline+1% BSA (FIG. 9, panel B) were treated with diluents control, phosphate buffered saline alone (FIG. 9, control) or 400 μM tert-butyl-hydroperoxide (FIG. 9, TBHP) for 30 minutes at 37° C., 5% CO2 prior to staining with 500 nM Compound 1. Cell samples were analyzed on a BD LSRII flow cytometer equipped with a 488 nm laser line and a 525/50 bandpass filter for collection of fluorescence emission of Compound 1. The median fluorescent intensity (MFI) of Compound 1 fluorescence in control cells (FIG. 9, panel A) and the MFI of Compound 1 fluorescence in TBHP-treated cells (FIG. 9, panel B) stained in complete media (FIG. 9, panel A) were increased compared to samples stained in protein-containing buffer (FIG. 9, panel B). As a consequence, the signal to noise ratio (or fold change in TBHP-treated cells as compared to control cells) in the samples stained in complete media (FIG. 9, panel A) is greater (13.6) than the signal to noise ratio in the samples stained in protein-containing buffer (9.6)."}, "[3]": {"tested_on": "Jurkat cells (T-cell leukemia, human)", "assay": "Detection of ROS with and without a post-staining wash step, flow cytometry", "format": "cell-based", "procedure": "Jurkat cells (T-cell leukemia, human) were treated with phosphate buffered saline (control; FIG. 8, panel A) or 200 μM tert-butyl-hydroperoxide (TBHP; FIG. 8, panel B) for one hour at 37° C., 5% CO2 prior to incubation with 500 nM Compound 1. Cell samples were directly analyzed on a Becton Dickinson LSRII flow cytometer equipped with a 488 nm laser line and a 525/50 bandpass filter for collection of fluorescence emission of Compound 1. Histogram overlays show cells analyzed immediately following 30 minutes incubation with Compound 1 (FIG. 8) compared to samples analyzed following three-3 mL wash steps (FIG. 8). […] The signal to noise ratio (or fold change in TBHP-treated cells as compared to control cells) in the no-wash samples was similar to the signal to noise ratio in the samples that were washed three times, 9.1 and 10.4, respectively, for the no-wash and the washed sample."}, "Jurkat cells [4]": {"tested_on": "Jurkat cells", "assay": "Detection of oxidative stress using flow cytometry (menadione, TBHP)", "format": "cell-based, human", "conditions": "menadione 25-100 μM or TBHP 50-200 μM 60 min, 5 μM probe, 488 nm laser, 530/30 filter", "procedure": "Jurkat cells were diluted in RPMI with 10% FBS to a density of 10^6 cells/ml. Control cells were treated with vehicle control or DMSO, and sample cells were treated with different concentrations of menadione (25 μM, 50 μM, or 100 μM), or were treated with different concentrations of Tert-butyl hydroperoxide (TBHP) (50 μM, 100 μM, or 200 μM) for 60 min. Compound 1 was added to a final concentration of 5 μM for the last 30 minutes of drug incubation. The samples were acquired and analyzed on an Attune® Acoustic Focusing Cytometer. Compound 1 fluorescence was detected using the 488 nm laser and a 530/30 nm bandpass emission filter. A total of 20,000 events were collected using the standard 200 μl/minute collection rate. An increase in Compound 1 fluorescence intensity is observed in menadione and TBHP-treated cells compared to their controls (see, FIG. 6)."}, "[5]": {"tested_on": "Human aortic smooth muscle (HASM) cells", "assay": "Detection of angiotensin-II-induced oxidative stress by fluorescence microscopy", "format": "cell-based", "conditions": "500 ng/ml angiotensin-II 4 hrs, 5 μM probe for last 30 min", "procedure": "Human aortic smooth muscle (HASM) cells were plated on MatTek 30 mm dishes at a density of 150,000 cells/dish and incubated at 37° C. The cells were then treated with or without 500 ng/ml angiotensin-II for 4 hrs. The cells were stained with 5 μM Compound 1 for last 30 min of the drug incubation. The cells were washed 3× with PBS and imaged on a Zeiss Axiovert inverted microscope using a 40× objective. An increase in the signal of Compound 1 as observed for all compounds tested, indicating an increase in oxidative stress in these cell models (see, FIG. 3)."}, "[6]": {"tested_on": "Human osteosarcoma (U2-OS) cells", "assay": "Resistance to formaldehyde fixation and detergent permeabilization", "format": "cell-based", "conditions": "100 μM menadione 1 hr, 5 μM probe, 4% formaldehyde, 0.1% Triton X-100", "procedure": "Human osteosarcoma (U2-OS) cells were plated on a 96-well plate at a density of 7,500 cells/well and incubated overnight at 37° C. The cells were treated with or without 100 μM menadione for 1 hr at 37° C. The cells were then stained with 5 μM Compound 1 and Hoechst 33342 by adding the probes to complete media and incubating at 37° C. for 30 min. The cells were washed with PBS and imaged on a Thermo Fisher Cellomics ArrayScan® VTI, either live or 4% formaldehyde fixed or formaldehyde-fixed and permeabilized with 0.1% Triton X-100."}, "[7]": {"tested_on": "Human osteosarcoma (U2-OS) cells", "assay": "Detection of TBHP- or menadione-induced ROS by fluorescence microscopy", "format": "cell-based", "conditions": "200 μM TBHP 2 hrs or 100 μM menadione 1 hr, 5 μM probe for last 30 min, washed 3× PBS", "procedure": "Human osteosarcoma (U2-OS) cells were plated on MatTek 30 mm dishes at a density of 200,000 cells/dish and incubated at 37° C. The cells were then treated with or without 200 μM tert-butyl hydroperoxide (TBHP, 2 hrs at 37° C.) or 100 μM menadione (1 hr at 37° C.). The cells were stained with 5 μM Compound 1 for the last 30 min of the drug incubation. The cells were washed 3× with phosphate buffered saline (PBS) and imaged on a Zeiss Axiovert inverted microscope using a 40× objective."}}}
{"compound": "CCCCC1=C/C(=C/C2Sc3ccccc3N2C)c2ccccc2N1c1ccccc1", "note": "(stereo not shown) [Compound 1, (Z)-2-((2-butyl-1-phenylquinolin-4(1H)-ylidene)methyl)-3-methyl-2,3-dihydrobenzo[d]thiazole]", "values": [{"measurement": "Mean Fluorescence Intensity (MFI), TBHP-treated cells", "setting": "Jurkat cells [1]; 200 μM TBHP 1 hour", "value": 3944}, {"measurement": "Mean Fluorescence Intensity (MFI), TBHP + NAC treated cells", "setting": "Jurkat cells [1]; 200 μM TBHP and 1 mM N-acetyl-L-cysteine 1 hour", "value": 2768}, {"measurement": "Mean Fluorescence Intensity (MFI), control cells", "setting": "Jurkat cells [1]; phosphate buffered saline control", "value": 365}, {"measurement": "signal to noise ratio (fold change in TBHP-treated cells as compared to control cells), protein-containing buffer", "setting": "[2]; 400 μM TBHP 30 minutes, PBS + 1% BSA", "value": 9.6}, {"measurement": "signal to noise ratio (fold change in TBHP-treated cells as compared to control cells), complete media", "setting": "[2]; 400 μM TBHP 30 minutes, RPMI 1640 + 10% FBS", "value": 13.6}, {"measurement": "median fluorescent intensity (MFI) in complete media compared to protein-containing buffer", "setting": "[2]; control and 400 μM TBHP-treated cells", "value": "increased"}, {"measurement": "median fluorescence intensity (MFI), no-wash cells compared to washed cells", "setting": "[3]; 500 nM probe 30 minutes, no wash vs three 3 mL wash steps", "value": "not significantly different"}, {"measurement": "signal to noise ratio (fold change in TBHP-treated cells as compared to control cells), no-wash sample", "setting": "[3]; 200 μM TBHP 1 hour, 500 nM probe, no wash", "value": 9.1}, {"measurement": "signal to noise ratio (fold change in TBHP-treated cells as compared to control cells), washed sample", "setting": "[3]; 200 μM TBHP 1 hour, 500 nM probe, washed three times", "value": 10.4}, {"measurement": "fluorescence intensity in menadione and TBHP-treated cells compared to controls", "setting": "Jurkat cells [4]", "value": "increase"}, {"measurement": "signal of Compound 1 (fluorescence) in treated vs untreated cells", "setting": "[5]", "value": "increase"}, {"measurement": "signal retention after formaldehyde fixation and detergent permeabilization", "setting": "[6]", "value": "retained well"}, {"measurement": "signal of Compound 1 (fluorescence) in treated vs untreated cells", "setting": "[7]", "value": "increase"}]}
